Experimental data published in paper PMC9315260, “Diarylamine-Guided Carboxamide Derivatives: Synthesis, Biological Evaluation, and Potential Mechanism of Action” (Frontiers in Chemistry, 2022).
“Also recorded” adds a separate entry of the source.

Columns and labels:
[1] = tested on: A875 (human melanoma cell line); assay: MTT in vitro cytotoxicity assay, A875; assay type: cell-based; conditions: for IC50: mean ± S.D.; for inhibition at 100 µM: A875, at 100 µM, read-out: Cell growth inhibition (%) A875
Protocol: (§1) The lead molecules A2 and all newly prepared diarylamine derivatives B1-13 and C1-11 were evaluated for their in vitro cytotoxic effects against SGC-7901, A875, HepG2 and MARC145 cell lines by the classical MTT [3-(4,5-dimethylthiazol-2-yl)-2,5-diphenyl tetrazolium bromide] assay ([Alley et al., 1988]; [Ke et al., 2012]; [Shi et al., 2012]; [Yu et al., 2015]; [Ke et al., 2019]; [Xu et al., 2019]; [Huang et al., 2021]) using 5-FU (5-Fluorouracil) as a control.
(§2) The cytotoxicity of target compounds was determined with MTT assay ([Alley et al., 1988]; [Ke et al., 2012]; [Shi et al., 2012]; [Yu et al., 2015]; [Ke et al., 2019]; [Xu et al., 2019]; [Huang et al., 2021]). SGC-7901, A875, HepG2 and MARC145 cell lines were obtained from Hubei Biopesticide Engineering Research Centre. All data of the experiment were analyzed with SPSS software, and all assay were performed in triplicate on three independent experiments, and measurement data were expressed as the mean ± S.D.
(§3) The in vitro cytotoxicity of the synthesized compounds against different cell lines (SGC-7901, A875, HepG2 and MARC145) was measured with MTT assay. All the data of the experiment were analyzed with SPSS software, and the 50% inhibitory concentrations (IC50) of each compound for the different cell lines were determined. A control was run for each test, and all assays were performed in triplicate on three independent experiments, and measurement data were expressed as the mean ± S.D.

[2] = tested on: SGC-7901, A875, HepG2 and MARC145 cell lines; assay: MTT in vitro cytotoxicity assay, statements over the whole cell panel; assay type: cell-based; conditions: for cytotoxic effect / inhibition activity in words: IC50-based judgement, compared with 5-FU; for inhibition activity in preliminary screening, in words: at 100 µM, inhibition rate higher than control 5-FU
Protocol: as §1, §2, §3

[3] = tested on: MARC145 (subclone of African green monkey kidney cell line MA-104); assay: MTT in vitro cytotoxicity assay, MARC145; assay type: cell-based; conditions: Chlorocebus sabaeus, MARC145; at 100 µM; read-out: Cell growth inhibition (%) MARC145
Protocol: as §1, §2, §3

[4] = MTT in vitro cytotoxicity assay, MARC145; assay type: cell-based, African green monkey; conditions: African green monkey, MARC145 cells (kidney cell line, subclone of MA-104), MTT, mean ± S.D.
Protocol: as §1, §2, §3

[5] = tested on: SGC-7901 (human gastric cancer cell line); assay: MTT in vitro cytotoxicity assay, SGC-7901; assay type: cell-based; conditions: for IC50: mean ± S.D.; for inhibition at 100 µM: SGC-7901, at 100 µM, read-out: Cell growth inhibition (%) SGC-7901
Protocol: as §1, §2, §3

A875 cells = assay: LDH release (cellular necrosis); assay type: cell-based, human; conditions: 24 h after treatment
Protocol: From the preliminary analysis of apoptosis, the results encourage us to further investigate the type of cell death induced by the potential compounds (C6 and C11). As we know, the release of LDH is a typical characteristic feature of necrotic cell death, and so which was detected.
A875 cells grown in 96-well plates were treated with serial dilutions of each tested compound for 24 h. The culture media were collected, and the concentrations of LDH were determined based on our previous research ([Huang et al., 2021]).
A875 cells grown in 96-well plates were treated with serial dilutions of each tested compound for 24 h. The culture media were collected, and the concentrations of LDH were determined with an LDH assay kit according to the manufacturer’s instructions (Abcam).

[6] = tested on: HepG2 (human hepatocellular liver carcinoma cell line); assay: MTT in vitro cytotoxicity assay, HepG2; assay type: cell-based; conditions: for IC50: mean ± S.D.; for inhibition at 100 µM: HepG2, at 100 µM, read-out: Cell growth inhibition (%) HepG2
Protocol: as §1, §2, §3

MDCK = tested on: MDCK; parameters: method as in Peng et al., 2017; conditions: ref Peng et al., 2017; cited from earlier work
A549 = tested on: A549; parameters: method as in Peng et al., 2017; conditions: ref Peng et al., 2017; cited from earlier work
[7] = tested on: lung cancer cell lines (NCI-H460, A549, and NCI-H1975); parameters: method as in Peng et al., 2017; conditions: ref Peng et al., 2017, read-out: IC50 values against the tested lung cancer cell lines; cited from earlier work
NCI-H460 = tested on: NCI-H460; parameters: method as in Peng et al., 2017; conditions: ref Peng et al., 2017; cited from earlier work
NCI-H1975 = tested on: NCI-H1975; parameters: method as in Peng et al., 2017; conditions: ref Peng et al., 2017; cited from earlier work
HL-7702 = tested on: HL-7702; parameters: method as in Peng et al., 2017; conditions: ref Peng et al., 2017; cited from earlier work

melting point [°C]	Structure (SMILES)	IC50 ([1]; A875, Table 1, MTT) [µM]	IC50 ([1]; A875, Table 3, MTT) [µM]	inhibition at 100 µM [1] [%]	dose-response analysis of cell growth inhibition, in words ([2]; SGC-7901, A875, HepG2, MARC145)	inhibition at 100 µM [3] [%]	IC50 ([4]; Table 1) [µM]	IC50 ([4]; Table 3) [µM]	IC50 ([5]; SGC-7901, Table 1, MTT) [µM]	IC50 ([5]; SGC-7901, Table 3, MTT) [µM]	inhibition at 100 µM [5] [%]	IC50 ([6]; HepG2, Table 1, MTT) [µM]	IC50 ([6]; HepG2, Table 3, MTT) [µM]	inhibition at 100 µM [6] [%]	IC50 (MDCK) [µM]	IC50 (A549) [µM]	IC50 (NCI-H460) [µM]	IC50 (NCI-H1975) [µM]	IC50 (HL-7702) [µM]	cytotoxic effect / inhibition activity in words [2]	also measured
	O=c1[nH]cc(F)c(=O)[nH]1 [5-FU, 5-Fluorouracil, reference compound]	82.4 ± 23.7	101 ± 7.14	53.2 ± 4.5	significant concentration dependence	60.3 ± 3.9	153 ± 11	99 ± 16.4	71.1 ± 2.65	87.7 ± 11	56.8 ± 2.2	88.1 ± 17.2	91.8 ± 16.1	59 ± 3.5							release of LDH, in words (A875 cells): significantly increased
	Cc1cc(Cl)cc(C(N)=O)c1NC(=O)c1ccccc1Nc1cccc(C(F)(F)F)c1 [A1]	56.9 ± 7.54					> 89		52.8 ± 6.59			> 89			> 80	> 80	> 80	> 80	> 80		IC50 [7]: > 80 µM
	CNC(=O)c1cc(Cl)cc(C)c1NC(=O)c1ccccc1Nc1cccc(C(F)(F)F)c1 [A2]	7.59 ± 1.82					8.13 ± 2.49		8.5 ± 2.26			12.4 ± 0.39			46 ± 7.77	14.7 ± 1.86	14.8 ± 0.49	23.4 ± 2.21	46.4 ± 3.87		IC50 ([2]; SGC-7901, A875, HepG2, MARC145, read-out: IC50 values, span over the tested cell lines): 7.59 to 12.4 µM
102 to 103	O=C(Nc1ccc(C(F)(F)F)cc1)c1ccccc1Nc1cccc(C(F)(F)F)c1 [C7, N-(4-(Trifluoromethyl)phenyl)-2-((3-(trifluoromethyl)phenyl)amino)benzamide]		13 ± 3.39	92.6 ± 4.9	significant concentration dependence	76.1 ± 3.5		11.9 ± 1.37		8.91 ± 2.15	87 ± 2.4		10.4 ± 2.17	88.5 ± 3.3						good cytotoxic effect; also recorded: higher inhibition activities compared to the control 5-FU	inhibition activity in preliminary screening, in words [2]: good inhibition activity
97 to 98	O=C(Nc1ccnc(Cl)c1)c1ccccc1Nc1cccc(C(F)(F)F)c1 [C10, N-(2-Chloropyridin-4-yl)-2-((3-(trifluoromethyl)phenyl)amino)benzamide]		26.3 ± 7.39	90.1 ± 5.4		80.3 ± 4.6		22.7 ± 5.93		8.31 ± 2.94	86.8 ± 3.2		21.9 ± 1.64	87.2 ± 4.1						higher inhibition activities compared to the control 5-FU	inhibition activity in preliminary screening, in words [2]: good inhibition activity
